Laboratory results from PubChem BioAssay (NCI).
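Growth conditions: 96-well plates. Treatment: test compound, 48 hours, 5 concentrations. Analysis: linear interpolation between bracketing concentrations; unreached endpoints set to highest concentration. TGI: concentration producing complete growth inhibition.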

How the values were obtained:
Assay in all cases: DTP human tumour cell line panel, 48 h
[1] = system: 786-0 renal
[2] = system: A498 renal
[3] = system: A549 NSCLC
[4] = system: ACHN renal
[5] = system: BT-549 breast
[6] = system: CAKI-1 renal
[7] = system: CCRF-CEM leukemia
[8] = system: COLO 205 colon
[9] = system: DU-145 prostate
[10] = system: EKVX NSCLC
[11] = system: HCC-2998 colon
[12] = system: HCT-116 colon
[13] = system: HCT-15 colon
[14] = system: HL-60(TB) leukemia
[15] = system: HOP-62 NSCLC
[16] = system: HOP-92 NSCLC
[17] = system: HS 578T breast
[18] = system: HT29 colon
[19] = system: IGROV1 ovarian
[20] = system: K-562 leukemia
[21] = system: KM12 colon
[22] = system: LOX IMVI melanoma
[23] = system: M14 melanoma
[24] = system: MALME-3M melanoma
[25] = system: MCF7 breast
[26] = system: MDA-MB-231 breast
[27] = system: MDA-MB-435
[28] = system: MDA-N
[29] = system: MOLT-4 leukemia
[30] = system: NCI-H226 lung
[31] = system: NCI-H23 lung
[32] = system: NCI-H460 lung
[33] = system: NCI-H522 lung
[34] = system: NCI/ADR-RES ovarian
[35] = system: OVCAR-3 ovarian
[36] = system: OVCAR-4 ovarian
[37] = system: OVCAR-5 ovarian
[38] = system: OVCAR-8 ovarian
[39] = system: PC-3 prostate
[40] = system: SF-268 CNS
[41] = system: SF-295 CNS
[42] = system: SF-539 CNS
[43] = system: SK-MEL-2 melanoma
[44] = system: SK-MEL-28 melanoma
[45] = system: SK-MEL-5 melanoma
[46] = system: SK-OV-3 ovarian
[47] = system: SN12C renal
[48] = system: SNB-19 CNS
[49] = system: SNB-75 CNS
[50] = system: SR leukemia
[51] = system: SW-620 colon
[52] = system: T-47D breast
[53] = system: TK-10 renal
[54] = system: U251 CNS
[55] = system: UACC-257 melanoma
[56] = system: UACC-62 melanoma
[57] = system: UO-31 renal
[58] = system: RPMI-8226 leukemia

SMILES: C=C[C@H]1CN2CCc3c([nH]c4cc(O)ccc34)[C@@H]2C[C@@H]1C[C@H]1c2[nH]c3ccccc3c2CCN1C
- TGI [1]: 3.36 µM
- TGI [2]: 5.83 µM
- TGI [3]: 15 µM
- TGI [4]: 10.1 µM
- TGI [5]: 27.2 µM
- TGI [6]: 14.6 µM
- TGI [7]: 3.98 µM
- TGI [8]: 3.31 µM
- TGI [9]: 33.9 µM
- TGI [10]: 20.1 µM
- TGI [11]: 3.44 µM
- TGI [12]: 5.94 µM
- TGI [13]: 6.54 µM
- TGI [14]: 7.69 µM
- TGI [15]: 9.37 µM
- TGI [16]: 8.08 µM
- TGI [17]: 11.1 µM
- TGI [18]: 6.4 µM
- TGI [19]: 3.39 µM
- TGI [20]: 7.88 µM
- TGI [21]: 9.13 µM
- TGI [22]: 9.67 µM
- TGI [23]: 3.14 µM
- TGI [24]: 26.9 µM
- TGI [25]: 6.01 µM
- TGI [26]: 16.9 µM
- TGI [27]: 3.76 µM
- TGI [28]: 3.22 µM
- TGI [29]: 12.4 µM
- TGI [30]: 36.3 µM
- TGI [31]: 31.8 µM
- TGI [32]: 4.96 µM
- TGI [33]: 8.29 µM
- TGI [34]: 24.6 µM
- TGI [35]: 9.55 µM
- TGI [36]: 18.7 µM
- TGI [37]: 31.4 µM
- TGI [38]: 11.8 µM
- TGI [39]: 9.69 µM
- TGI [40]: 15.8 µM
- TGI [41]: 9.15 µM
- TGI [42]: 3.33 µM
- TGI [43]: 7.65 µM
- TGI [44]: 3.27 µM
- TGI [45]: 3.14 µM
- TGI [46]: 27.4 µM
- TGI [47]: 13.3 µM
- TGI [48]: 17.6 µM
- TGI [49]: 6.62 µM
- TGI [50]: 6.41 µM
- TGI [51]: 3.87 µM
- TGI [52]: 36.1 µM
- TGI [53]: 22.1 µM
- TGI [54]: 3.24 µM
- TGI [55]: 3.98 µM
- TGI [56]: 8.46 µM
- TGI [57]: 4.81 µM

SMILES: CCN1CC2(COC)C(O)CC(OC)C34C5CC6(O)C(OC)C=C(C5C6OC(=O)c5ccc(OC)c(OC)c5)C(C(OC)C23)C14 (stereo not drawn)
- TGI [1]: > 7.5 µM
- TGI [2]: > 7.5 µM
- TGI [3]: > 7.5 µM
- TGI [4]: > 7.5 µM
- TGI [5]: > 7.5 µM
- TGI [6]: > 7.5 µM
- TGI [7]: > 7.5 µM
- TGI [8]: > 7.5 µM
- TGI [9]: > 7.5 µM
- TGI [10]: > 7.5 µM
- TGI [11]: > 7.5 µM
- TGI [12]: > 7.5 µM
- TGI [13]: > 7.5 µM
- TGI [14]: > 7.5 µM
- TGI [16]: > 7.5 µM
- TGI [17]: > 7.5 µM
- TGI [18]: > 7.5 µM
- TGI [19]: > 7.5 µM
- TGI [20]: > 7.5 µM
- TGI [21]: > 7.5 µM
- TGI [22]: > 7.5 µM
- TGI [23]: > 7.5 µM
- TGI [24]: > 7.5 µM
- TGI [25]: > 7.5 µM
- TGI [26]: > 7.5 µM
- TGI [27]: > 7.5 µM
- TGI [28]: > 7.5 µM
- TGI [30]: > 7.5 µM
- TGI [31]: > 7.5 µM
- TGI [32]: > 7.5 µM
- TGI [33]: > 7.5 µM
- TGI [34]: > 7.5 µM
- TGI [36]: > 7.5 µM
- TGI [37]: > 7.5 µM
- TGI [38]: > 7.5 µM
- TGI [39]: > 7.5 µM
- TGI [40]: > 7.5 µM
- TGI [41]: > 7.5 µM
- TGI [42]: > 7.5 µM
- TGI [43]: > 7.5 µM
- TGI [44]: > 7.5 µM
- TGI [45]: > 7.5 µM
- TGI [46]: > 7.5 µM
- TGI [47]: > 7.5 µM
- TGI [48]: > 7.5 µM
- TGI [49]: > 7.5 µM
- TGI [50]: > 7.5 µM
- TGI [51]: > 7.5 µM
- TGI [52]: > 7.5 µM
- TGI [53]: > 7.5 µM
- TGI [54]: > 7.5 µM
- TGI [55]: > 7.5 µM
- TGI [56]: > 7.5 µM
- TGI [57]: > 7.5 µM

SMILES: O=C(c1c(Cl)cc(Cl)cc1Cl)N(Cc1cccnc1)C(=S)N(Cc1cccnc1)C(=O)c1c(Cl)cc(Cl)cc1Cl
- TGI [1]: 10.5 µM
- TGI [2]: 51.6 µM
- TGI [3]: > 100 µM
- TGI [4]: 41.1 µM
- TGI [5]: 9.59 µM
- TGI [6]: 19.8 µM
- TGI [7]: > 100 µM
- TGI [8]: 21.9 µM
- TGI [9]: 17.2 µM
- TGI [10]: 35.3 µM
- TGI [11]: 7.4 µM
- TGI [12]: 11.1 µM
- TGI [13]: 11.2 µM
- TGI [14]: 64.7 µM
- TGI [15]: 20.3 µM
- TGI [16]: 10.6 µM
- TGI [17]: 58.4 µM
- TGI [18]: 13.2 µM
- TGI [20]: > 100 µM
- TGI [21]: 10.3 µM
- TGI [22]: 15.1 µM
- TGI [23]: 26.5 µM
- TGI [24]: 42.4 µM
- TGI [25]: 15.8 µM
- TGI [26]: 40.9 µM
- TGI [27]: 26.5 µM
- TGI [28]: 5.2 µM
- TGI [29]: > 100 µM
- TGI [30]: 45.1 µM
- TGI [31]: 23.5 µM
- TGI [32]: 32.9 µM
- TGI [33]: 25.6 µM
- TGI [34]: 34.3 µM
- TGI [35]: 13.9 µM
- TGI [36]: 5.25 µM
- TGI [37]: 40.8 µM
- TGI [38]: 16.5 µM
- TGI [39]: 24 µM
- TGI [58]: > 100 µM
- TGI [40]: 27.8 µM
- TGI [41]: 43.2 µM
- TGI [42]: 28.4 µM
- TGI [43]: 36 µM
- TGI [44]: 47.9 µM
- TGI [45]: 26.4 µM
- TGI [46]: 77 µM
- TGI [47]: 20.5 µM
- TGI [48]: 52.4 µM
- TGI [49]: 14.2 µM
- TGI [50]: > 100 µM
- TGI [51]: > 100 µM
- TGI [52]: 41.4 µM
- TGI [53]: 11.1 µM
- TGI [54]: 27.3 µM
- TGI [55]: 22.8 µM
- TGI [56]: 34.2 µM
- TGI [57]: 19.4 µM
